Assay results taken from patent publication US20080058210A1, “Method of isolating shikimic acid from a plant” (priority 2006, published 2008).

Test system: Express spring wheat
Assay: Field trial plots with glyphosate on Express spring wheat; shikimic acid in whole above ground plant by water extraction and HPLC
Format: in vivo
Description: Field trial plots with glyphosate on Express spring wheat were established at three treatment levels, untreated control, 4 oz formulated/acre, and 14 oz formulated/acre. Field site studies were conducted in eastern Washington, near Kennewick, Wash. There were buffer zones around each treat level and control plot. The whole above ground plant was harvested at time zero, 5, 10, 15, and 20 days after application. The samples were cooled immediately and frozen within one hour. The samples were received from the field and stored in the freezer at <−10 C. At the time of application plants were 8-10 inches tall, after 20 days the control plants were 20-24 inches and beginning to head out.
Plant tissue was placed in an open container and dried at ca. 70 C overnight (14 to 16 hrs). Each sample was ground to pass through a 20 mesh screen. The ground sample was placed in a glass jar. Sealed samples may be stored at ≦−10 C for several months (the longest time tested). Approximately 150 mg of dry ground sample weight was placed into a screw cap bottle, 30 mL of DI water was added, and the bottle was capped and placed on a shaker overnight (14 to 16 hrs) at a minimum of 50 rpm. Extracts were filtered through a Whatman GF/A filter. For quantification, an aliquot was filtered (0.45 μm disposable) into an HPLC auto-sampler vial.
HPLC analysis was performed on a Perkin-Elmer ISS 200. Instrument conditions were as follows: column 250×4.6 mm ALTEX Ultrasphere 5 μm ODS (or equivalent);mobile phase (isocratic) 50 mM KH2PO4 solution adjusted to pH 2.4; flow rate 2 mL/min, detector 214 nm. Calibration curves consisted of 1, 5, 10, 50, 100 and 200 μg/mL standards, r^2 values were ≧0.998. Retention time was ca. 2.0 min.

SMILES: O=C(O)CNCP(=O)(O)O [glyphosate]
- shikimic acid level, factor above normal (higher treat rate 14 oz formulated/acre, day-5): 6
- shikimic acid level, factor above normal (higher treat rate 14 oz formulated/acre, day-10): 10
- shikimic acid level relative to normal (higher treat rate 14 oz formulated/acre, through the study period of 20 days): remains elevated
- shikimic acid level relative to normal (low treat rate 4 oz formulated/acre, day 20): within normal levels
- shikimic acid level, factor above normal (low treat rate 4 oz formulated/acre, day-5 sampling): 4
- shikimic acid level, factor above normal (low treat rate 4 oz formulated/acre, day-10): 2
- shikimic acid level relative to normal (low treat rate 4 oz formulated/acre, day-15): nearly within normal range
